Data: patent US10155802B2, “Locally-active anticoagulants and anti-inflammatory agents” (priority 2011, dated 2018)
Positions of bridges follow the written chain, without caps; N, C: chain ends. Non-standard residues stand in square brackets, D forms with d. Residues, ends and D or L forms follow the SMILES beside them. Chains are numbered I, II in the order given. No end group written: not given here. *: point of attachment. Benzenesulfonyl(4-tBu) = CC(C)(C)c1ccc(S(=O)(=O)*)cc1; Dansyl = CN(C)c1cccc2c(S(=O)(=O)*)cccc12; dTic = O=C(O)[C@H]1Cc2ccccc2CN1; dPip = O=C(O)[C@H]1CCCCN1

How the values were obtained:
Human α-thrombin [1] = target: T1, Human α-thrombin (Homo sapiens, UniProt P00734); experiment: Thrombin inhibition constants of monovalent active-site moieties and TWE1 (method not described); format: biochemical
T1 construct: Human α-thrombin was purchased from Haemotologic Technologies, Inc., VT, USA; purchased Haemotologic Technologies, Inc., VT, USA

Human α-thrombin [2] = target: T1, Human α-thrombin; experiment: Inhibition of thrombin-catalyzed hydrolysis of chromogenic substrate S-2366 (inhibition constant Ki); format: biochemical; settings: Ki
[3] = monovalent binding moieties for the active site of thrombin

Molecule | Ki (Human α-thrombin [1]; [3]) [µM] | further results
CC(=O)N[C@H](Cc1ccccc1)C(=O)N1CCC[C@H]1C(=O)N[C@@H](CCCNC(=N)N)C(=O)O [Ac-dFPR] | 170 ± 18 | –
CC[C@H](C)[C@H](NC(=O)[C@H](CCC(=O)O)NC(=O)[C@H](CCC(=O)O)NC(=O)[C@H](Cc1ccccc1)NC(=O)[C@H](CC(=O)O)NC(=O)CNC(=O)[C@H](CCC(=O)O)NC(=O)[C@@H](NC(=O)[C@H](Cc1c[nH]c2ccccc12)NC(=O)[C@@H](NC(=O)[C@H](Cc1c[nH]c2ccccc12)NC(=O)[C@@H](NC(=O)[C@H](CCCCN)NC(=O)[C@@H](NC(=O)[C@H](C)NC(=O)[C@H](CC(=O)O)NC(=O)[C@H](CC(=O)O)NC(=O)[C@H](Cc1c[nH]c2ccccc12)NC(=O)[C@@H](NC(=O)[C@H](Cc1c[nH]c2ccccc12)NC(=O)[C@H](CCC(=O)O)NC(=O)CNC(=O)[C@H](CC(=O)O)NC(=O)[C@@H](NC(=O)[C@H](Cc1ccccc1)NC(=O)[C@H](CCCNC(=N)N)NC(=O)[C@@H]1CCCN1)[C@@H](C)O)[C@@H](C)O)[C@@H](C)O)[C@@H](C)O)[C@@H](C)O)[C@@H](C)O)C(=O)N1CCC[C@H]1C(=O)N[C@@H](CCC(=O)O)C(=O)N[C@@H](CCC(=O)O)C(=O)N[C@@H](Cc1ccc(O)cc1)C(=O)N[C@@H](CC(C)C)C(=O)N[C@@H](CCC(N)=O)C(=O)O [BRI-T109] | – | Ki (Human α-thrombin [2]; FIG. 14A): 1.45 µM
CC[C@H](C)[C@H](NC(=O)[C@H](CCC(=O)O)NC(=O)[C@H](CCC(=O)O)NC(=O)[C@H](Cc1ccccc1)NC(=O)[C@H](CC(=O)O)NC(=O)CNC(=O)[C@H](CCC(=O)O)NC(=O)[C@@H](NC(=O)[C@H](Cc1c[nH]c2ccccc12)NC(=O)[C@@H](NC(=O)[C@H](Cc1c[nH]c2ccccc12)NC(=O)[C@@H](NC(=O)[C@H](CCCCN)NC(=O)[C@@H](NC(=O)[C@H](C)NC(=O)[C@H](CC(=O)O)NC(=O)[C@H](CC(=O)O)NC(=O)[C@H](Cc1c[nH]c2ccccc12)NC(=O)[C@@H](NC(=O)[C@H](Cc1c[nH]c2ccccc12)NC(=O)[C@H](CCC(=O)O)NC(=O)CNC(=O)[C@H](CC(=O)O)NC(=O)[C@@H](NC(=O)[C@H](Cc1ccccc1)NC(=O)[C@H](CCCNC(=N)N)NC(=O)[C@@H]1CCCN1C(=O)[C@H](CCCNC(=N)N)NC(=O)[C@@H]1CCCN1C(=O)[C@H](CCC(N)=O)NC(=O)[C@@H](N)Cc1ccccc1)[C@@H](C)O)[C@@H](C)O)[C@@H](C)O)[C@@H](C)O)[C@@H](C)O)[C@@H](C)O)C(=O)N1CCC[C@H]1C(=O)N[C@@H](CCC(=O)O)C(=O)N[C@@H](CCC(=O)O)C(=O)N[C@@H](Cc1ccc(O)cc1)C(=O)N[C@@H](CC(C)C)C(=O)O [BRI-T207] | – | Ki (Human α-thrombin [2]; T = 37° C., enzyme kinetics, chromogenic substrate): ~0.4 µM
CC(C)(C)c1ccc(S(=O)(=O)N[C@@H](CCCNC(=N)N)C(=O)N2CCCC[C@@H]2C(=O)N[C@@H](Cc2c[nH]c3ccccc23)C(N)=O)cc1 [Bbs-R-(d-Pip)-W-NH2] | 6 ± 1 | –
variant of BTI1: disulfide-bond linkage between Bbs-Arg-(D-Pip)-Gly-Cys and 15N-labelled Cys-(GS)8-GDFEEIPEEYLQ (peptide 1 {Benzenesulfonyl(4-tBu)}-R[dPip]GC; peptide 2 CGSGSGSGSGSGSGSGSGDFEEIPEEYLQ; disulfide I:4-II:1; also: chain 2 15N-labelled) [TWE1] | – | Ki (Human α-thrombin [1]; bivalent inhibitor TWE1): 0.0022 ± 0.0004 µM

Further molecules by falling Ki (Human α-thrombin [1]; [3]), results first:

Ki (Human α-thrombin [1]; [3]) [µM] | Molecule | further results
4.38 ± 0.18 | CC(C)(C)OC(=O)N[C@H](Cc1ccccc1)C(=O)N1CCC[C@H]1C(=O)N[C@@H](CCCNC(=N)N)C(=O)O [Boc-dFPR] | –
2.26 ± 0.1 | CC(C)(C)c1ccc(S(=O)(=O)N[C@@H](CCCNC(=N)N)C(=O)N2CCCC[C@@H]2C(=O)NCC(N)=O)cc1 [Bbs-R-(d-Pip)-G-NH2] | –
1.57 ± 0.06 | N=C(N)NCCC[C@H](NC(=O)[C@@H]1CCCN1C(=O)[C@H](N)Cc1ccccc1)C(=O)O [H-dFPR] | –
1.13 ± 0.03 | CC(C)(C)c1ccc(S(=O)(=O)N[C@@H](CCCNC(=N)N)C(=O)N2CCCC[C@@H]2C(N)=O)cc1 [Bbs-R-(d-Pip)-NH2] | –
0.86 ± 0.06 | CN(C)c1cccc2c(S(=O)(=O)N[C@@H](CCCNC(=N)N)C(=O)N3Cc4ccccc4C[C@@H]3C(N)=O)cccc12 [Dansyl-R-(d-Tic)-NH2] (Dansyl-Arg-[dTic]-NH2) | –
0.37 ± 0.04 | CN(C)c1cccc2c(S(=O)(=O)N[C@@H](CCCNC(=N)N)C(=O)N3CCCC[C@@H]3C(N)=O)cccc12 [Dansyl-R-(d-Pip)-NH2] (Dansyl-Arg-[dPip]-NH2) | –
